According to PubChem BioAssay (NCI):
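Five compound concentrations were applied to cells in 96-well plates for 48 hours; endpoints were derived by simple linear interpolation of the resulting dose-response curve. At the GI50, growth is halved. Definition used: TGI = concentration required for complete inhibition of growth.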

Tests used:
Assay in all cases: NCI anticancer screen, dose series, 48 h
A498 renal = system: A498 renal
HCC-2998 colon = system: HCC-2998 colon
LOX IMVI melanoma = system: LOX IMVI melanoma
NCI-H460 lung = system: NCI-H460 lung
SK-MEL-28 melanoma = system: SK-MEL-28 melanoma
SK-MEL-5 melanoma = system: SK-MEL-5 melanoma
SN12C renal = system: SN12C renal
UO-31 renal = system: UO-31 renal
RXF 393 renal = system: RXF 393 renal
UACC-257 melanoma = system: UACC-257 melanoma

| SMILES | GI50 (A498 renal) [µM] | TGI (A498 renal) [µM] | GI50 (HCC-2998 colon) [µM] | TGI (HCC-2998 colon) [µM] | GI50 (LOX IMVI melanoma) [µM] | TGI (LOX IMVI melanoma) [µM] | GI50 (NCI-H460 lung) [µM] | TGI (NCI-H460 lung) [µM] | GI50 (SK-MEL-28 melanoma) [µM] | TGI (SK-MEL-28 melanoma) [µM] | GI50 (SK-MEL-5 melanoma) [µM] | TGI (SK-MEL-5 melanoma) [µM] | GI50 (SN12C renal) [µM] | TGI (SN12C renal) [µM] | GI50 (UO-31 renal) [µM] | TGI (UO-31 renal) [µM] | TGI (RXF 393 renal) [µM] | TGI (UACC-257 melanoma) [µM] | GI50 (RXF 393 renal) [µM] | GI50 (UACC-257 melanoma) [µM] |
| --- | --- | --- | --- | --- | --- | --- | --- | --- | --- | --- | --- | --- | --- | --- | --- | --- | --- | --- | --- | --- |
| C[C@]12CC[C@H](O)CC1=CC[C@@H]1[C@@H]2CC[C@]2(C)C(=O)/C(=C/c3cccc(OCCCn4ccnc4)c3)C[C@@H]12 | 20.5 | 39.1 | 34.1 | > 100 | 23.1 | 56.2 | 19.6 | 43.2 | 22.2 | 51.5 | 11.1 | 24.6 | 28.7 | 88.3 | 16 | 35.1 | – | – | – | – |
| Cc1c(Cl)ccc2c1NC(=O)C2(O)CC(=O)c1ccc(Cl)cc1Cl (stereo not drawn) | – | > 50 | – | > 50 | – | > 50 | – | > 50 | – | > 50 | – | > 50 | – | > 50 | – | > 50 | 48.9 | > 50 | – | – |
| COc1cc(OC)c(-c2cc(=O)c3c(OC)c(OC)c(OC)c(OC)c3o2)cc1OC | – | > 100 | – | > 100 | – | > 100 | – | > 100 | – | > 100 | – | > 100 | – | > 100 | – | > 100 | > 100 | > 100 | – | – |
| O=c1cc2n(c(=O)[nH]1)C1OC(C(O)C1O)[C@@H]2CCO (stereo partly drawn) | – | > 100 | – | – | – | > 100 | – | > 100 | – | > 100 | – | > 100 | – | > 100 | – | > 100 | > 100 | > 100 | – | – |
| O=C(NC1CCCCC1)c1c(O)[nH]c(=S)[nH]c1=O | – | > 100 | – | – | – | > 100 | – | > 100 | – | > 100 | – | > 100 | – | > 100 | – | > 100 | – | > 100 | – | – |
| CC(=O)[CH-]C(=O)c1ccccc1.CC(=O)[CH-]C(=O)c1ccccc1.[Nd+3].[OH-].[OH3+] | > 100 | > 100 | > 100 | > 100 | > 100 | > 100 | > 100 | > 100 | > 100 | > 100 | > 100 | > 100 | > 100 | > 100 | > 100 | > 100 | > 100 | > 100 | > 100 | > 100 |
| C[C@@H]1O[C@@H](O[C@H]2C[C@@H](O)[C@]3(CO)C4C(CC[C@]3(O)C2)[C@@]2(O)CC[C@H](C3=CC(=O)OC3)[C@@]2(C)C[C@H]4O)[C@H](O)[C@H](O)[C@H]1O (stereo partly drawn) | 0.0387 | 0.262 | 0.088 | 0.238 | 0.0233 | 0.0882 | 0.0133 | 0.0376 | 0.0881 | 0.164 | 0.016 | 0.0533 | 0.0178 | 0.0844 | 0.0165 | 0.0618 | 0.0291 | 0.129 | 0.0115 | 0.0626 |
| OCC1SC(n2cnc3cncnc32)C(O)C1O (stereo not drawn) | > 100 | > 100 | > 100 | > 100 | > 100 | > 100 | > 100 | > 100 | > 100 | > 100 | > 100 | > 100 | > 100 | > 100 | > 100 | > 100 | > 100 | > 100 | > 100 | > 100 |
